Test results: patent EP1785417A2, “Novel non-psychotropic cannabinoids” (priority 2000, dated 2001)
Read-outs that look alike come from different tables or passages of the source.

What was measured:
[1] = tested on: TNFα; test: Inhibition of TNFα in LPS-stimulated macrophage cell cultures (ELISA); assay type: cell-based; conditions: LPS-stimulated macrophages
Description: (§1) Evaluation of the therapeutic effects of the novel PRS-211 compounds has now been carried out in a series of experimental systems to support the utility of these drugs as neuroprotectants, anti-inflammatory agents and anti-oxidative agents. These effects have been evaluated both in vitro and in vivo, and have been corroborated utilizing the following systems: • (a) Binding to the NMDA receptor linked channel: Non competitive antagonists of NMDA, the primary example of which is the compound MK-801, bind to a site within the NMDA receptor channel thus preventing the activation of the receptor-channel complex and the consequent neurotoxicity. The ability of various compounds to compete with the binding of tritium labeled MK-801 to brain membranes is considered a measure of their potency as NMDA non-competitive antagonists. • (b) Inhibition of prostaglandin production: The inhibitory effect of the new derivatives of Dexanabinol on prostaglandin synthesis is evaluated in macrophage cell cultures following LPS exposure to induce the inflammatory response. These assays are an indication of the anti-inflammatory activity of the individual analogs. • (c) Inhibition of Tumor Necrosis Factor Alpha: Specific aspects of the inflammatory response cascade are mediated by the cytokine TNFα. Inhibition of TNFα production and/or inhibition of TNFα release by the new analogs are assayed in macrophage cell cultures activated with LPS. This serves as another indication of the general anti-inflammatory potential of the novel compounds. • (d) Nitric Oxide Assay: As one aspect of the anti-oxidative potential of the novel analogs they were tested for their ability to inhibit the enzyme nitric oxide synthase (NOS). This assay can also serve as another indication of the anti-inflammatory cascade, as well as the anti-oxidative mechanisms. • (e) Ear Edema model: The anti-inflammatory activity of the new analogs is screened using an ear edema model in mice. This test system utilizes Croton oil or Arachidonic acid as inflammation inducers. The ability of the test compounds to prevent or diminish the inflammatory response to these stimulants is indicative of their systemic anti-inflammatory capability. • (f) Improved clinical outcome after closed head injury in rats: Severe head injury is associated with high mortality and severe neurological impairment. Animals subjected to head trauma in a controlled fashion serve as models in which to test drugs of therapeutic potential. Test compounds can be evaluated both for improved clinical outcome and for reduction of edema induced by closed head injury. The ability of compounds to reduce the severity of neurological symptoms and to reduce brain edema is considered a measure of their potency in reducing brain damage. • (g) Transient Middle cerebral artery occlusion (MCAo): The middle cerebral artery is the cerebral blood vessel most susceptible to stroke in humans. In animals, coagulation, permanent ligation or permanent placement of an occluding thread in the artery produces a permanent focal stroke affecting the MCA territory. Transient ligation or occlusion results in transient focal stroke. Both transient and permanent focal strokes result in varying degrees of edema and infarction in the affected brain regions. The ability of compounds to reduce the volumes of edema and infarction is considered a measure of their potential as anti-stroke treatment. • (h) Optic Nerve Crush: Application of mechanical pressure to the rat optical nerve results in crush injury of the axons, which is accompanied by immediate changes in oxidative metabolism and delayed axonal death and blindness. […]

[2] = tested on: ear edema model in mice; test: Ear edema model; assay type: in vivo; conditions: Mus musculus, Croton oil (CO) as inducer, IP
Description: as §1

[3] = tested on: PGE2; test: Inhibition of prostaglandin synthesis (PGE2) in LPS-stimulated macrophage cell cultures; assay type: cell-based; conditions: LPS-stimulated macrophages
Description: as §1

[4] = biological target: NMDA receptor; test: Radioligand binding: displacement of [3H]MK-801 from rat forebrain membranes; conditions: for NMDA receptor binding / affinity: MK-801 binding to membranes
Description: as §1

[5] = tested on: Nitric Oxide Synthase (NOS); test: Inhibition of nitric oxide synthase (nitrite fluorimetric assay, LPS-stimulated macrophage cultures); assay type: cell-based; conditions: LPS-stimulated macrophages
Description: as §1

[6] = tested on: transient middle cerebral artery occlusion in rats; test: Transient middle cerebral artery occlusion (MCAo), infarct size evaluation; assay type: in vivo; conditions: 5 mg/kg IV at 2+0 hours
Description: Experimental design. The design was a randomized one, performed in a masked fashion as to whether drug or vehicle was being given, and an attempt was made to generate approximately equal numbers of drug- and vehicle-treated animals.
• a. Male rats (8 /treatment group) 320-380 gr. (Harlan Israel). • b. Halothane (Rhone Poulenc France) • c. Pentobarbitone (Pental Veterinary, CTS Israel). • d. Poly - L - Lysine (Sigma, USA). • e. Silk suture material 3-0 and 4-0. • f. Nylon (Polyamid) suture material 3-0. Four cm pieces were cut and positioned in a solution of 1% Poly - L - Lysine for 1 minute and dried in an oven (60 ° C) for 60 minutes. The tip of each piece was rounded under a flame. • g. Saline (Teva Medical). • h. Blank cremophor ethanol cosolvent (Pharmos). • i. Dexanabinol in cremophor ethanol cosolvent 50 mg/ml. (Both Dexanabinol and its vehicle were diluted in saline prior to drug administration. • j. Analogs PRS-211,092, PRS-211,095, PRS-211,128 PRS-211,132 and PRS-211,220 in cremophor ethanol cosolvent, 50 mg/ml. • k. The analogs were diluted in saline prior to drug administration.
• a. Surgical details of the MCAo method used for testing dexanabinol analogs, are presented in Belayev, et al., (Belayev, Busto, Weizhao, and Ginsberg, Stroke 26:2313-2319, 1995) which is incorporated herein in its entirety by reference. • b. Two hours after the start of MCAO, the animals were reanesthetized with halothane, the neck wound was re-opened and the nylon thread pulled out of the Internal carotid artery (ICA). The skin wound was then closed with 3-0 silk suture material and the animals allowed to recover from the anesthesia. • c. Three sets of animals were tested. In the first test immediately (2+0 hours) before thread removal the animals were injected IV with either analogs PRS-211,095, PRS-211,128, PRS-211,132, or Dexanabinol (PRS-211,007) each at a dosage of 5 mg/kg. One group of animals was treated with 5ml/kg vehicle alone. In another group, the animals subjected to "sham" operation, the suture was passed into the ICA, as described above, but immediately withdrawn. In the second set dexanabinol, PRS-211,092, PRS-211,095 and PRS-211,220 were used, at 2+0 hours. In the third set dexanabinol, PRS-211,092, PRS-211,095 and PRS-211,220 were administered 1 hour after thread removal (2+1 hours). Laser Doppler Flow (LDF) determined the success of MCAo - a drop of more then 50% in cerebral blood flow was considered as a sign of successful MCAo. Although LDF was a helpful corroborative sign, clinical outcome remained the final inclusion/exclusion criterion, since, with the exception of the PRS-211,220 staircase study, LDF was introduced only after initiation of the study.
A detailed investigation of neurological performance was carried out on the first, third and the 7th day after the MCAo. Two parameters were examined: posture and the flexion reflex (based on Nokon and Chuang, NeuroReport 9, 1998: 2081-2084). Animals were scored according to their performance:
One week after the ischemic insult, animals were euthanized with pentobarbitone 100 mg/kg IP. The animals were perfused through the heart with heparinized 4% formaldehyde solution in PBS (pH 7.4). Brains were then removed, and kept in the same solution before preparation for histological evaluation of the brain infarct volume.

[7] = displacement of [3H]MK-801, rat forebrain membranes, read-out: NMDA BINDING IC50

Compound | inhibition at 10 µM [1] | ED50 [2] | inhibition at 10 µM [3] | IC50 [4, 7] | inhibition at 10 µM [5] | NMDA receptor binding / affinity [4] | Mortality rate [6] | IC50 ([4]; [3H]MK-801 binding, text to Figure 2, read-out: mean IC50)
CCCCCCC(C)(C)c1cc(O)c2c(c1)OC(C)(C)[C@H]1CC=C(C[S+](C)[O-])C[C@H]21 (stereo partly drawn) [211,041-000] | 23% | 39 µmol/kg | 56% | 6 µM | 72% | – | – | –
CC(C)(C)c1cc(O)c2c(c1)OC(C)(C)[C@H]1CC=C(CO)C[C@H]21 [211,047-000] | 0% | – | 28% | 100 µM | – | – | – | –
CCCCCCC(C)(C)c1cc(O)c2c(c1)OC(C)(C)[C@H]1CC=C(CN3CCC(N4CCCC4)CC3)C[C@H]21 [211,253-000] | 0% | – | 92% | > 100 µM | 27% | do not exhibit substantial NMDA receptor binding | – | –
CCCCCCC(C)(C)c1cc(O)c2c(c1)OC(C)(C)[C@H]1CC=C(CN3CCNC(C)C3)C[C@H]21 (stereo partly drawn) [211,134-000] | – | – | – | > 100 µM | – | – | – | –
CCCCCCC(C)(C)c1cc(O)c2c(c1)OC(C)(C)[C@H]1CC=C(CN3CCCCC3)C[C@H]21 (stereo in doubt) [211,159-000] | 33% | – | 87% | > 20 µM | 27% | – | – | –
CCCCCCC(C)(C)c1cc(O)c2c(c1)OC(C)(C)[C@H]1CC=C(Cn3cncn3)C[C@H]21 [211,102-000] | – | – | – | 2.5 µM | – | – | – | –
CCCCCCC(C)(C)c1cc(O)c2c(c1)OC(C)(C)[C@H]1CC=C(CN(Cc3ccccc3)c3ccccc3)C[C@H]21 [211,255-000] | 0% | – | 94% | > 100 µM | 7% | do not exhibit substantial NMDA receptor binding | – | –
CCCCCCC(C)(C)c1cc(O)c2c(c1)OC(C)(C)[C@H]1CC=C(CN3CCOCC3)C[C@H]21 [211,132-000] | 21% | 70 µmol/kg | 61% | 4.5 µM | 40% | – | around 25% | 4.5 µM
CCCCCCC(C)(C)c1cc(O)c2c(c1)OC(C)(C)[C@H]1CC=C(CN3CC=CCC3)C[C@H]21 [211,145-000] | 15% | – | 63% | 13 µM | 60% | – | – | –
CCCCCCC(C)(C)c1cc(O)c2c(c1)OC(C)(C)[C@H]1CC=C(CN3CCC(C)CC3)C[C@H]21 (single isomer, unassigned) [211,251-000] | 0% | – | 91% | > 100 µM | 37% | do not exhibit substantial NMDA receptor binding | – | –
CCCCCCC(C)(C)c1cc(O)c2c(c1)OC(C)(C)[C@H]1CC=C(Cc3cccs3)C[C@H]21 [211,118-000] | – | – | – | 32 µM | – | – | – | –
CCCCCCC(C)(C)c1cc(O)c2c(c1)OC(C)(C)[C@H]1CC=C(Cn3cnnc3)C[C@H]21 [211,103-000] | – | – | – | 3 µM | – | – | – | –
CCCCCCC(C)(C)c1cc(O)c2c(c1)OC(C)(C)[C@H]1CC=C(Cc3ccccc3)C[C@H]21 [211,119-000] | – | – | 14% | 62 µM | – | – | – | –
CCCCCCC(C)(C)c1cc(O)c2c(c1)OC(C)(C)[C@H]1CC=C(COCC(O)CO)C[C@H]21 (stereo partly drawn) [211,211-000] | 18% | – | 83% | 4.6 µM | 0% | – | – | –
CCCCCCC(C)(C)c1cc(O)c2c(c1)OC(C)(C)[C@H]1CC=C(CN3CCNCC3)C[C@H]21 [211,133-000] | – | – | – | > 100 µM | – | – | – | –
CCCCCCC(C)(C)c1cc(O)c2c(c1)OC(C)(C)[C@H]1CC=C(CN3CC=CC3)C[C@H]21 [211,212-000] | 14% | – | 96% | 7.5 µM | 0% | – | – | –
CCCCCCC(C)(C)c1cc(O)c2c(c1)OC(C)(C)[C@H]1CC=C(CC#N)C[C@H]21 [211,006-000] | 46% | 104 µmol/kg | 41% | 8 µM | 19% | – | – | –
CCCCCCC(C)(C)c1cc(O)c2c(c1)OC(C)(C)[C@H]1CC=C(CN3CCC(N4CCCCC4)CC3)C[C@H]21 (single isomer, unassigned) [211,257-000] | 10% | – | 88% | > 100 µM | 39% | do not exhibit substantial NMDA receptor binding | – | –
CCCCCCC(C)(C)c1cc(O)c2c(c1)OC(C)(C)[C@H]1CC=C(CNC(C)=O)C[C@H]21 [211,044-000] | 0% | – | 24% | 6 µM | – | – | – | –
